# Source: US11903923B2, “Use of andrographolide derivatives in preparation of medicaments for preventing and treating inflammatory bowel diseases” (GUANGZHOU MAGPIE PHARMACEUTICALS CO., LTD., priority 2015, dated 2024)
# Columns and labels:
# [1] = test system: p65 subunit in the NF-κB signaling pathway; experiment: Western blotting of p-p65 and p65 in colonic tissues; type: in vivo, mice; conditions: compared with the model group
# Description: NF-κB, as a key transcription factor regulating the release of inflammatory cytokines, plays an important role in the complex cytokine dysregulation network of IBD. To investigate whether the inhibitory effect of AL-1 on the expression of inflammatory cytokines TNF-α, IL-6 and IL-1β is related to the activation of NF-κB signaling pathway, the present inventors used Western blotting to detect the expression of p-p65 and p65 in colonic tissues.
# TNF-α = experiment: serum inflammatory cytokine TNF-α in TNBS-induced ulcerative colitis mice; type: in vivo
# [2] = test system: TNBS-induced ulcerative colitis mice; experiment: histopathological observation (HE staining, CMDI) of the colon of TNBS-induced ulcerative colitis mice; type: in vivo
# Description: Colon tissues were paraffin-embedded and sliced in parallel with HE staining.
# IL-6 = experiment: serum inflammatory cytokine IL-6 in TNBS-induced ulcerative colitis mice; type: in vivo
# myeloperoxidase (MPO) = experiment: MPO activity test in colon tissue of TNBS-induced ulcerative colitis mice; type: in vivo
# Description: It can be seen from the results of MPO activity test in colonic tissues that the content of MPO in normal tissue was very low, the neutrophil infiltration was obvious in model group treated with TNBS, and the content of MPO increased obviously, being twice as that in normal group.
# [3] = test system: TNBS-induced ulcerative colitis mice; experiment: disease activity index (DAI) of TNBS-induced ulcerative colitis mice; type: in vivo; conditions: third day after enema
# IL-1β = experiment: serum inflammatory cytokine IL-1β in TNBS-induced ulcerative colitis mice; type: in vivo
# PPAR-γ = experiment: amount of PPAR-γ expressed in colon tissue; type: in vivo; conditions: TNBS-induced mice
# Description: Peroxisome proliferator-activated receptor γ (PPAR-γ) may have anti-inflammatory effects by inhibiting the expression of transcription factors NF-κB, AP-1 and other related genes, have the effects of reducing the expression of inflammatory factors and adhesion molecules, and play important role for maintaining the integrity of the intestinal mucosa. Studies have shown that, when IBD occurred, the in vivo expression of PPAR-γ would be reduced in some extent.
# [4] = first 60 minutes of the reaction, in vitro; cited from earlier work
# [5] = test system: TNBS-induced ulcerative colitis mice; experiment: morphological observation of the colon of TNBS-induced ulcerative colitis mice; type: in vivo
# Description: In the TNBS model group mice, the lesions of the colon were obvious, the colon was shortened, the proximal colon was dilated with indication of obstructive lesions, and the distal intestine became narrowed with indication of ulceration with congestion, edema, erosion and intestinal wall thickening.
# [6] = test system: TNBS-induced ulcerative colitis mice; experiment: colon length of TNBS-induced ulcerative colitis mice; type: in vivo; conditions: three days after TNBS enema
# COX-2 = experiment: expression of COX-2 in colon tissue; type: in vivo; conditions: TNBS-induced mice
# Description: Cyclooxygenase-2 (COX-2) is undetectable in normal human colonic epithelial cells, but the presence of a large amount of COX-2 can be detectable in the intestinal mucosal epithelial cells of CD patients and UC patients. Such high expression can cause elevated expression of pro-inflammatory substance of prostaglandin, and promote IBD epithelial congestion and edema.
# [7] = test system: TNBS-induced ulcerative colitis mice; experiment: body weight of TNBS-induced ulcerative colitis mice; type: in vivo
# Description: The mice of normal control group were shown lively, body hair shiny, and weight continued to increase. The model mice after TNBS enema appeared to be apathetic and lazy with body hair messy and less luster, and with water intake being reduced. The model mice were also shown continuing decrease in body weight, with an average weight loss of 17.9% on the third day compared with that before rectal perfusion.
compound,measurement,setting,value
C=C1CCC2[C@@](C)(CC[C@@H](O)[C@@]2(C)CO)C1C/C=C1/C(=O)OCC1OC(=O)CCCCC1CCSS1 (stereo partly shown) [AL-1],phosphorylation level of p65 in colonic tissue,[1],significantly reduce the phosphorylation level of p65
same,serum level of TNF-α,"TNF-α; AL-1 5, 15, 45 mg/kg",significantly lessen the increase
same,colon histopathology (HE staining),[2]; 5 mg/kg,obvious myositis cell infiltration of mucosa and submucosa but in much less extent as compared with the model groups
same,colon histopathology (HE staining),[2]; 15 mg/kg,myositis cell infiltration was reduced
same,colon histopathology (HE staining),[2]; 45 mg/kg,significant reduction in the amount of myositis cell infiltration of mucosa and submucosa
same,CMDI (tissue damage),"[2]; AL-1 5, 15 and 45 mg/kg",improve tissue damage in a dose-dependent manner
same,serum level of IL-6,"IL-6; AL-1 5, 15, 45 mg/kg",significantly lessen the increase
same,MPO content in the colon tissue,"myeloperoxidase (MPO); AL-1 5, 15 and 45 mg/kg",lessen in a dose-dependent manner the increase of the MPO content
same,average DAI score,[3]; 5 mg/kg,6.00
same,average DAI score,[3]; 15 mg/kg,6.25
same,average DAI score,[3]; 45 mg/kg,4.00
same,serum level of IL-1β,"IL-1β; AL-1 5, 15, 45 mg/kg",significantly lessen the increase
same,expression of PPAR-γ in colon tissue,PPAR-γ,significantly increased the expression of PPAR-γ
same,binding rate with the sulfydryl group of GSH relative to Andro,[4],7 times
same,colon morphology,"[5]; AL-1 5, 15 and 45 mg/kg",significant reduction of the symptoms
same,colon length,"[6]; AL-1 5, 15 and 45 mg/kg",enhanced the colonic length
same,COX-2 expression level in colon tissue,COX-2,effectively inhibit the increase of COX-2 expression level
same,body weight increase on average compared with the model group,"[7]; AL-1 45 mg/kg, third day",4.65%
"Nc1ccc(O)c(C(=O)O)c1 [Mesalazine, reference compound]",phosphorylation level of p65 in colonic tissue,[1],significantly reduce the phosphorylation level of p65
same,serum level of TNF-α,TNF-α; Mesalazine,significantly lessen the increase
same,colon histopathology (HE staining),[2]; 100 mg/kg,obvious relief of myositis cell infiltration
same,CMDI (mucosal injury),[2]; Mesalazine,significant effect to improve mucosal injury
same,serum level of IL-6,IL-6; Mesalazine,significantly lessen the increase
same,MPO content in the colon tissue,"myeloperoxidase (MPO); Mesalazine, P<0.01",obviously reduce the content of MPO
same,average DAI score,[3]; 100 mg/kg,5.13
same,serum level of IL-1β,IL-1β; Mesalazine,significantly lessen the increase
same,expression of PPAR-γ in colon tissue,PPAR-γ,significantly increased the expression of PPAR-γ
same,colon morphology,[5]; Mesalazine group,improvement on colon injury
same,improvement of colon length,"[6]; Mesalazine, compared with the model groups",not significant
same,COX-2 expression level in colon tissue,COX-2,effectively inhibit the increase of COX-2 expression level
same,body weight of the mice,"[7]; Mesalazine, from the second day after modeling, P<0.05",significantly increased body weight
